# Reference: US7713994B2 (Wyeth LLC, priority 2005, dated 2010)
# Target: T1, cyclin D1/cdk 4 enzyme (Homo sapiens, UniProt P11802)
# T1 construct: made in house; host or cells: Sf9 insect cells, recombinant baculovirus
# Assay: CDK4 ELISA kinase assay (phospho-Rb ser 795 detection)
# Assay type: biochemical
# Conditions: In Vitro Enzyme Assay, cyclin D1/cdk 4, read-out: CDK4 IC50
# Procedure: • 1. High-binding ELISA microtiter plates (Costar) were coated with 40 μl of the kinase substrate (GST fusion of C-terminal fragment of the retinoblastoma susceptibility gene product) diluted to 10 μg/ml in tris-buffered saline (TBS), overnight at 4° C. • 2. Non-specific binding sites were blocked for 1 hour at 4° C. with Superblock in TBS (Pierce), and the plates rinsed with water. • 3. For the screen, 1.5 μl of test compound (200 μg/ml stock in 20% DMSO/20 mM HEPES, pH 7.5) was added to each well. Final dose of the test compound in the assay was 10 ug/ml. […] The kinase reaction (30 μl) was dispensed into each well. Reactions contained 200 μM ATP, 0.5 mg/ml bovine serum albumin (BSA; Sigma), and 0.5 μl partially purified cyclin D1/cdk 4 enzyme*. The enzyme complex is expressed in insect cells (Sf9) infected with recombinant baculovirus and partially purified using ammonium sulfate fractionation. Reaction volumes were adjusted to 30 μl with kinase assay buffer (50 mM HEPES, pH 7.5, 10 mM MgCl2, 5% glycerol, 10 mM 2-mercaptoethanol). • *: For CDK2 assay, 1.0 μl cyclin E/CDK2 enzyme (diluted 1:1000 in kinase assay buffer) was used. The enzyme is isolated from insect cells (Sf9) infected with recombinant baculovirus and partially purified using ammonium sulfate fractionation. For CDK1 assay, 0.08 μl cyclin B/CDK1 enzyme [New England BioLabs; the enzyme is isolated from insect cells (Sf9) infected with recombinant baculovirus carrying human cdc 2 and human cyclin B] was used.
# […] • 5. Plates were incubated at 30° C. for 1 hour. • 6. The reaction mixture was removed by aspiration and replaced with 250 μl TBS containing 0.1% Tween-20 and 5% nonfat dry milk (blocking buffer). The plates were incubated at 4° C. for 1 hour. • 7. The blocking buffer was removed and replaced with 50 μl of the primary antibody [anti-phospho-Rb ser 795 (New England BioLabs) diluted 1:1000 in blocking buffer]. Incubation was at 4° C. for 16-20 hours. • 8. The wells were rinsed 3 times with 250 μl of TBS containing 0.1% Tween-20 followed by the addition of 50 μl of secondary antibody [anti-rabbit IgG conjugated to horseradish peroxidase (Amersham Life Science) diluted 1:1000 in blocking buffer]. • 9. After a 1 hour incubation at room temperature, the wells were rinsed 3 times with 250 μl of TBS/0.1% Tween 20. • 10. TMB (3,3′,5,5′-tetramethylbenzidine dihydrochloride) substrate solution (100 μl; Pierce) was added to each well and the color development reaction allowed to proceed 5-10 minutes at room temperature with shaking. The reaction was stopped by the addition of 2N sulfuric acid (100 μl) and the absorbance values read at 450 nm in a microplate reader (Molecular Devices). Analysis of Results: • 1. The percentage of the absorbance value in wells containing the test compound relative to control wells (no test agent) was determined. • 2. IC50 values of selected compounds were determined from inhibition curves, after subtracting background values (no substrate).
# T1 sequence (P11802 whole entry, species assumed): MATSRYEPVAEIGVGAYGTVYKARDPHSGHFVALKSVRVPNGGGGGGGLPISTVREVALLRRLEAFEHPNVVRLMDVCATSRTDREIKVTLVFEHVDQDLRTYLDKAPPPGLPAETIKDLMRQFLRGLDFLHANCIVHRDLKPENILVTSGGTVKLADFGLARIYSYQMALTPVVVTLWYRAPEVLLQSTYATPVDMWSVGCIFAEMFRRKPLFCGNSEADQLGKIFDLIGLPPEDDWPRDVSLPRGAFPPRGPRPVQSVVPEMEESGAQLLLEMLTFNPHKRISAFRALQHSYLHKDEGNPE
# T1 sequence (P24385 whole entry partner, species assumed): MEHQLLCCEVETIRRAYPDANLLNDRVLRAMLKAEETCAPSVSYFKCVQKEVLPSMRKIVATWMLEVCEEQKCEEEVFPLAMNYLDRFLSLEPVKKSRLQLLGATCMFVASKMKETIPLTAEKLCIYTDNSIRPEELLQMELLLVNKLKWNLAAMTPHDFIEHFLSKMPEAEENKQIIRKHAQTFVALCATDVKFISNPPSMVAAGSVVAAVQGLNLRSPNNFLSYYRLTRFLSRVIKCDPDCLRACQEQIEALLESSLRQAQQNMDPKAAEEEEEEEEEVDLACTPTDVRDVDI
row,Structure (SMILES),IC50 [µM]
1,"CN1CCN(c2ccc(NC=C3C(=O)NC(=O)c4ccc(C=CCCCCO)cc43)cc2)CC1 [Example 798, 6-(6-Hydroxy-hex-1-enyl)-4-{[4-(4-methyl-piperazin-1-yl)-phenylamino]-methylene}-4H-isoquinoline-1,3-dione]",2.5
2,"CN1CCN(c2ccc(NC=C3C(=O)NC(=O)c4ccc(C=C5CCCC5)cc43)cc2)CC1 [Example 828, 6-Cyclopentylidenemethyl-4-{[4-(4-methyl-piperazin-1-yl)-phenylamino]-methylene}-4H-isoquinoline-1,3-dione]",4.4
3,"Cc1cc(NS(=O)(=O)c2ccc(NC=C3C(=O)NC(=O)c4ccccc43)cc2)no1 [Example 556, 4-[(1,3-Dioxo-2,3-dihydro-1H-isoquinolin-4-ylidenemethyl)-amino]-N-(5-methyl-isoxazol-3-yl)-benzenesulfonamide]",48.4
4,"C=CCN1CCN(c2ccc(NC=C3C(=O)NC(=O)c4ccccc43)cc2)CC1 [Example 597, 4-{[4-(4-Allyl-piperazin-1-yl)-phenylamino]-methylene}-4H-isoquinoline-1,3-dione]",39.2
5,"Cc1nc(NS(=O)(=O)c2ccc(NC=C3C(=O)NC(=O)c4ccccc43)cc2)oc1C [Example 553, N-(4,5-Dimethyl-oxazol-2-yl)-4-[(1,3-dioxo-2,3-dihydro-1H-isoquinolin-4-ylidenemethyl)-amino]-benzenesulfonamide]",23.7
6,"COc1cc(-c2ccc3c(c2)C(=CNCc2ccc(O)c(O)c2)C(=O)NC3=O)cc(OC)c1OC [Example 815, 4-[(3,4-Dihydroxy-benzylamino)-methylene]-6-(3,4,5-trimethoxy-phenyl)-4H-isoquinoline-1,3-dione]",2.5
7,"NS(=O)(=O)c1ccc(CNC=C2C(=O)NC(=O)c3ccc(-c4cccc(-c5ccccc5)c4)cc32)cc1 [Example 758, 4-{[(6-Biphenyl-3-yl-1,3-dioxo-2,3-dihydro-1H-isoquinolin-4-ylidenemethyl)-amino]-methyl}-benzenesulfonamide]",25.7
8,"CN1CCN(c2ccc(NC=C3C(=O)NC(=O)c4ccc(C=CCOCCO)cc43)cc2)CC1 [Example 799, 6-[3-(2-Hydroxy-ethoxy)-propenyl]-4-{[4-(4-methyl-piperazin-1-yl)-phenylamino]-methylene}-4H-isoquinoline-1,3-dione]",6.37
9,"CN1CCN(c2ccc(NC=C3C(=O)NC(=O)c4ccc(C=Cc5ccc(C(=O)O)cc5)cc43)cc2)CC1 [Example 727, 4-[2-(4-{[4-(4-Methyl-piperazin-1-yl)-phenylamino]-methylene}-1,3-dioxo-1,2,3,4-tetrahydro-isoquinolin-6-yl)-vinyl]-benzoic acid]",20.4
10,"CCS(=O)(=O)Nc1cccc(CNC=C2C(=O)NC(=O)c3ccccc32)c1 [Example 583, Ethanesulfonic acid (3-{[(1,3-dioxo-2,3-dihydro-1H-isoquinolin-4-ylidenemethyl)-amino]-methyl}-phenyl)-amide]",17.9
11,"CN1CCN(c2ccc(NC=C3C(=O)NC(=O)c4ccc(-c5cc6ccccc6s5)cc43)cc2)CC1 [Example 670, 6-Benzo[b]thiophen-2-yl-4-{[4-(4-methyl-piperazin-1-yl)-phenylamino]-methylene}-4H-isoquinoline-1,3-dione]",39.8
12,"O=C1NC(=O)c2ccc(-c3ccccc3C(F)(F)F)cc2C1=CNCc1ccc(O)c(O)c1 [Example 774, 4-[(3,4-Dihydroxy-benzylamino)-methylene]-6-(2-trifluoromethyl-phenyl)-4H-isoquinoline-1,3-dione]",1.4
13,"COc1ccc(C=Cc2ccc3c(c2)C(=CNc2ccc(N4CCN(C)CC4)cc2)C(=O)NC3=O)cc1 [Example 732, 6-[2-(4-Methoxy-phenyl)-vinyl]-4-{[4-(4-methyl-piperazin-1-yl)-phenylamino]-methylene}-4H-isoquinoline-1,3-dione]",25.8
14,"COCCN(C)Cc1ccc(N/C=C2\C(=O)NC(=O)c3ccccc32)cc1 [Example 616, 4-[(4-{[(2-Methoxy-ethyl)-methyl-amino]-methyl}-phenylamino)-methylene]-4H-isoquinoline-1,3-dione]",14.8

# Second part, the compound after the results:
row,IC50 [µM],Structure (SMILES)
1,20.7,"CN1CCN(c2ccc(NC=C3C(=O)NC(=O)c4ccc(-c5cccc(Cl)c5)cc43)cc2)CC1 [Example 690, 6-(3-Chloro-phenyl)-4-{[4-(4-methyl-piperazin-1-yl)-phenylamino]-methylene}-4H-isoquinoline-1,3-dione]"
2,33.6,"CC(C)c1cccc(-c2ccc3c(c2)C(=CNCc2ccc(S(N)(=O)=O)cc2)C(=O)NC3=O)c1 [Example 762, 4-({[6-(3-Isopropyl-phenyl)-1,3-dioxo-2,3-dihydro-1H-isoquinolin-4-ylidenemethyl]-amino}-methyl)-benzenesulfonamide]"
3,2.1,"CN1CCN(c2ccc(NC=C3C(=O)NC(=O)c4ccc(-c5ccc6c(c5)OCO6)cc43)cc2)CC1 [Example 806, 6-Benzo[1,3]dioxol-5-yl-4-{[4-(4-methyl-piperazin-1-yl)-phenylamino]-methylene}-4H-isoquinoline-1,3-dione]"
4,9.74,"O=C1NC(=O)c2ccc(-c3ccc(-c4ccccc4)cc3)cc2C1=CNCc1ccc(O)c(O)c1 [Example 786, 6-Biphenyl-4-yl-4-[(3,4-dihydroxy-benzylamino)-methylene]-4H-isoquinoline-1,3-dione]"
5,2.76,"CN1CCN(c2ccc(NC=C3C(=O)NC(=O)c4ccc(-c5cccc(N)c5)cc43)cc2)CC1 [Example 810, 6-(3-Amino-phenyl)-4-{[4-(4-methyl-piperazin-1-yl)-phenylamino]-methylene}-4H-isoquinoline-1,3-dione]"
6,4.2,"N#CCc1ccc(NC=C2C(=O)NC(=O)c3ccc(-c4cc[nH]c4)cc32)cc1 [Example 631, (4-{[1,3-Dioxo-6-(1H-pyrrol-3-yl)-2,3-dihydro-1H-isoquinolin-4-ylidenemethyl]-amino}-phenyl)-acetonitrile]"
7,13.3,"Cc1ccccc1-c1ccc2c(c1)C(=CNc1ccc(CC#N)cc1)C(=O)NC2=O [Example 717, {4-[(1,3-Dioxo-6-o-tolyl-2,3-dihydro-1H-isoquinolin-4-ylidenemethyl)-amino]-phenyl}-acetonitrile]"
8,7.9,"N#CCc1ccc(NC=C2C(=O)NC(=O)c3ccc(-c4ccc(Cl)cc4)cc32)cc1 [Example 712, (4-{[6-(4-Chloro-phenyl)-1,3-dioxo-2,3-dihydro-1H-isoquinolin-4-ylidenemethyl]-amino}-phenyl)-acetonitrile]"
9,8.2,"N#CCc1ccc(NC=C2C(=O)NC(=O)c3ccc(-c4ccc(C#N)cc4)cc32)cc1 [Example 718, 4-{4-[(4-Cyanomethyl-phenylamino)-methylene]-1,3-dioxo-1,2,3,4-tetrahydro-isoquinolin-6-yl}-benzonitrile]"
10,25.3,"CC(C)c1ccc(-c2ccc3c(c2)C(=CNc2ccc(CC#N)cc2)C(=O)NC3=O)cc1 [Example 722, (4-{[6-(4-Isopropyl-phenyl)-1,3-dioxo-2,3-dihydro-1H-isoquinolin-4-ylidenemethyl]-amino}-phenyl)-acetonitrile]"
11,14.3,"CN1CCN(c2ccc(NC=C3C(=O)NC(=O)c4ccc(-c5cccc(C#N)c5)cc43)cc2)CC1 [Example 695, 3-(4-{[4-(4-Methyl-piperazin-1-yl)-phenylamino]-methylene}-1,3-dioxo-1,2,3,4-tetrahydro-isoquinolin-6-yl)-benzonitrile]"
12,38.6,"N#CCc1ccc(NC=C2C(=O)NC(=O)c3ccc(-c4ccc(C(F)(F)F)cc4)cc32)cc1 [Example 709, (4-{[1,3-Dioxo-6-(4-trifluoromethyl-phenyl)-2,3-dihydro-1H-isoquinolin-4-ylidenemethyl]-amino}-phenyl)-acetonitrile]"
13,48.9,"CS(=O)(=O)NCc1ccc(NC=C2C(=O)NC(=O)c3ccccc32)cc1 [Example 612, N-{4-[(1,3-Dioxo-2,3-dihydro-1H-isoquinolin-4-ylidenemethyl)-amino]-benzyl}-methanesulfonamide]"
